Consider one molecule from PMC8402619 (Viruses, 2021).

What all share (assay type): in vitro ADME
One data set concerns the target T1, MRP4 (Homo sapiens, UniProt O15439).
T1 construct: purchased Thermo Fisher Scientific; host or cells: Sf9
The data set can be described thus: Inhibition of ATP-dependent probe uptake in Sf9 membrane vesicles. As to conditions: MRP4-mediated ATP-dependent uptake of folic acid.

A further data set concerns the target T2, CYP1A2 (Homo sapiens, UniProt P05177).
T2 sequence (P05177 1-516): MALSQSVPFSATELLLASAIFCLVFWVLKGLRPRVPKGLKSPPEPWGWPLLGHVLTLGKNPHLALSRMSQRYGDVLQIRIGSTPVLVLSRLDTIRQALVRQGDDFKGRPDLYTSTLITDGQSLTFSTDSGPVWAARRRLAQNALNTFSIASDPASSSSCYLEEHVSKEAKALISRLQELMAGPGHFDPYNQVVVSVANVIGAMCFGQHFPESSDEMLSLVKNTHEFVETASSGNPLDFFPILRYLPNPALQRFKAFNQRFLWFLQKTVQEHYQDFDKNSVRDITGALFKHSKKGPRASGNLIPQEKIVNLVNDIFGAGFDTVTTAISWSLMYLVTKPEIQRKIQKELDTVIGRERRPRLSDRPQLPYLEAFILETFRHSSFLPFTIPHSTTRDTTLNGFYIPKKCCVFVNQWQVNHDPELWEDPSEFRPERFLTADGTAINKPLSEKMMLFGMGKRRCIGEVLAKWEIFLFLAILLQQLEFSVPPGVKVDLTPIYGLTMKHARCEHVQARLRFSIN
The data set can be described thus: Time-dependent CYP inhibition in pooled human liver microsomes.

A further data set deals with T3, OAT1 (Homo sapiens, UniProt Q4U2R8).
T3 construct: expressed in transfected cells; host or cells: MDCKII
T3 sequence (Q4U2R8 1-563): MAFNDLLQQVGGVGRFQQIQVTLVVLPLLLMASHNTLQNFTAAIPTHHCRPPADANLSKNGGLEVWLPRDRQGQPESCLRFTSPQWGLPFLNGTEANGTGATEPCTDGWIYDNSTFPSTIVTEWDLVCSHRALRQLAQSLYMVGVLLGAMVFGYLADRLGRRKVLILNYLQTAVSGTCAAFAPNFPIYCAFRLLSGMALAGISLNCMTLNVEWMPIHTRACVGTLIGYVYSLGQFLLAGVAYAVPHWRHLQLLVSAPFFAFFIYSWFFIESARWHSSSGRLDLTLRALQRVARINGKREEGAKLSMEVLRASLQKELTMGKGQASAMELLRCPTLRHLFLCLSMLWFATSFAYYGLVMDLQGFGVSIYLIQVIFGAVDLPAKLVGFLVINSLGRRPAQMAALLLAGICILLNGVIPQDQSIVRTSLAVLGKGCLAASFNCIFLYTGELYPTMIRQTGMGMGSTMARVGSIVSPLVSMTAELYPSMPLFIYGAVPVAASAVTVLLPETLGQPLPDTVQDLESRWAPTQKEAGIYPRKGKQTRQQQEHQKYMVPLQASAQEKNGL
The data set can be described thus: Islatravir uptake as substrate, MDCKII vs MDCKII-OAT1 cells.

For a further data set, the target named is T4, OCT2 (Homo sapiens, UniProt O15244).
T4 construct: expressed in transfected cells; host or cells: CHO-K1
T4 sequence (O15244 1-555): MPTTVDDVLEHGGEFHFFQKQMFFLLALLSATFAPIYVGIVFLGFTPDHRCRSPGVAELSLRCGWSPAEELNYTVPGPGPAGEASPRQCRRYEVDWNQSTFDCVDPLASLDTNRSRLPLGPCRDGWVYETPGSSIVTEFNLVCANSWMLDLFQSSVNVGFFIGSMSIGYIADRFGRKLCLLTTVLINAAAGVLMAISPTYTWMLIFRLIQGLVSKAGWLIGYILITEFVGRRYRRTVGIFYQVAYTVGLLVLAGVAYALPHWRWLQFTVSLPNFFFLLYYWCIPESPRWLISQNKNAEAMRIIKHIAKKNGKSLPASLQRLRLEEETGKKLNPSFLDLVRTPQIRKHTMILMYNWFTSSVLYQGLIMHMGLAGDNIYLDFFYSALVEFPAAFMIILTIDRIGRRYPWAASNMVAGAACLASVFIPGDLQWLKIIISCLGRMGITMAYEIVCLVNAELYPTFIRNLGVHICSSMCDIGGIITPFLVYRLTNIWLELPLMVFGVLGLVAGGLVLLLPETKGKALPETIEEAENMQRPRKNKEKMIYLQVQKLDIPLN
The data set can be described thus: Inhibition of transporter-mediated probe uptake in CHO-K1-OCT2 cells.

A further data set has as its target CYP3A4 (Homo sapiens, UniProt P08684). The data set can be described thus: Time-dependent CYP inhibition in pooled human liver microsomes.
The target of another data set is T5, OATP1B1 (Homo sapiens, UniProt Q9Y6L6).
T5 construct: host or cells: HEK293
T5 sequence (Q9Y6L6 1-691): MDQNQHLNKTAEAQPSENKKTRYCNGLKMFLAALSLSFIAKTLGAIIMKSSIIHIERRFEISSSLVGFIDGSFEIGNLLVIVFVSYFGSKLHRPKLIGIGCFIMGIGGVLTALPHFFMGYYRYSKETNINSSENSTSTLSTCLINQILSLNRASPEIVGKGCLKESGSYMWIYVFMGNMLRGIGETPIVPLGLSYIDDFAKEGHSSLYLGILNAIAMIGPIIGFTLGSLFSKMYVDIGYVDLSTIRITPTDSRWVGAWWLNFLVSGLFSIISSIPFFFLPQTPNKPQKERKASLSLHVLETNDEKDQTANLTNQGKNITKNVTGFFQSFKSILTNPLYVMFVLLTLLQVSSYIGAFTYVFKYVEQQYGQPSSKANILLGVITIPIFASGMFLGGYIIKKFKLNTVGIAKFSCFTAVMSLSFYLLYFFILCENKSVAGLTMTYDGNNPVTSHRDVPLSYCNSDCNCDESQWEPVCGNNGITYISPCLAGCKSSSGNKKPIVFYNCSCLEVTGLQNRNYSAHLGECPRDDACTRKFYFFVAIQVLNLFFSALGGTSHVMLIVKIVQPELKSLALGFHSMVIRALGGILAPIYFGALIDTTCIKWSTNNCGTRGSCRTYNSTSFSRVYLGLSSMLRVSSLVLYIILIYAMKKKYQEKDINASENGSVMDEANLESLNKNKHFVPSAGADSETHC
The experiment in a line: Inhibition of transporter-mediated probe uptake in HEK293-OATP1B1 cells.

Structures are written as SMILES.

Sequence of CYP3A4 (P08684 whole entry): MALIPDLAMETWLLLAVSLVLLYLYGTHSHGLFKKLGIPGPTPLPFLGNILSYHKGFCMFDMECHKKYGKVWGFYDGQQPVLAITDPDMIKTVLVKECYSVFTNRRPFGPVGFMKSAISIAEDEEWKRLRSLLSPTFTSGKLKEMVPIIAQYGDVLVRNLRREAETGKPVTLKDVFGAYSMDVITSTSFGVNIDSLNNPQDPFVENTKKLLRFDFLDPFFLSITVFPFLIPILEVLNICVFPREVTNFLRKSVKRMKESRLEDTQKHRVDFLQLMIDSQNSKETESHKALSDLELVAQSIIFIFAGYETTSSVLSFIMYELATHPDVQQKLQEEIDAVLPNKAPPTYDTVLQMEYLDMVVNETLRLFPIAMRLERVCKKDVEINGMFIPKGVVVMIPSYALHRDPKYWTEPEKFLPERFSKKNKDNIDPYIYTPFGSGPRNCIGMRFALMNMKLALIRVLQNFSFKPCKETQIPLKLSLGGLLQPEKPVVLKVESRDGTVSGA
T1 sequence (O15439 whole entry): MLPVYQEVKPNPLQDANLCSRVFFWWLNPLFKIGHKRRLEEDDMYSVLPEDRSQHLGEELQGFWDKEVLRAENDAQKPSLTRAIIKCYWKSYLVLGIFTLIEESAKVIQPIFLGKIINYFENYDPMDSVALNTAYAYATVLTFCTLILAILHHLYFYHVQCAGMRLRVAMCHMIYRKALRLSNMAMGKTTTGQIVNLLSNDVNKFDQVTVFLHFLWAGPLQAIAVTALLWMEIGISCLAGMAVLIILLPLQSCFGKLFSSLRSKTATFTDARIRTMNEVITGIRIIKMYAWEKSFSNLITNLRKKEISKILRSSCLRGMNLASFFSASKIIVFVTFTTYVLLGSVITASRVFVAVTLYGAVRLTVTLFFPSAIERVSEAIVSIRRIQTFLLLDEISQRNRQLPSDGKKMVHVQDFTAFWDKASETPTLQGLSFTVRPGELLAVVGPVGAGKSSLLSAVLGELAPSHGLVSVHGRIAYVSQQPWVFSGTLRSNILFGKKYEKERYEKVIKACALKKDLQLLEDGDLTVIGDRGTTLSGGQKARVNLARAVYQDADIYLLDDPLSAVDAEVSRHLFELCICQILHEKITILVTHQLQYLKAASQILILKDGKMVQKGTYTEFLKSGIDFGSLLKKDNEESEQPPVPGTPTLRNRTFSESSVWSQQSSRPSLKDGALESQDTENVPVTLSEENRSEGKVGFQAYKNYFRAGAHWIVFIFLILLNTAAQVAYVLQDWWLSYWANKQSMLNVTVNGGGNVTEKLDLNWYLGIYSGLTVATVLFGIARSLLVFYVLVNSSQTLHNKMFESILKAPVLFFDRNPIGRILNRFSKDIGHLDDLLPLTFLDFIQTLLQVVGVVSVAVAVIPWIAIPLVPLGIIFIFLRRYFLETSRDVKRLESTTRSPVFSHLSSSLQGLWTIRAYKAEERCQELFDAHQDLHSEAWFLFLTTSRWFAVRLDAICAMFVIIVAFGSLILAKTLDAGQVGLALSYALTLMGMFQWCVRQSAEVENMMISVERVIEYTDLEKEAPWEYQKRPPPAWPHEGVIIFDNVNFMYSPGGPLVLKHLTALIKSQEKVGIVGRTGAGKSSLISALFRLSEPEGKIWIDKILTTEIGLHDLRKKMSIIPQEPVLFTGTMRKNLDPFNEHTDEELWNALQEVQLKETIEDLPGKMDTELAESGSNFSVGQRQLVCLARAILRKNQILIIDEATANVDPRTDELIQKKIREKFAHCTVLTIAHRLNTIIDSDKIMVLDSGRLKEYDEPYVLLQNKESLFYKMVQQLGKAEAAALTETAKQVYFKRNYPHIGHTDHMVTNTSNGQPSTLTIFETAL

Turning to `C#C[C@]1(CO)O[C@@H](n2cnc3c(N)nc(F)nc32)C[C@@H]1O` [Islatravir, 4′-Ethynyl-2-fluoro-2′-deoxyadenosine], the IC50 against MRP4 was more than 100 µM; on CYP1A2 (time dependent, CYP1A2, read-out: Islatravir IC50) it was more than 50 µM; on OCT2 (OCT2-mediated metformin uptake, read-out: Islatravir IC50), more than 100 µM; on CYP3A4 (time dependent, CYP3A4, read-out: Islatravir IC50), more than 50 µM; at OATP1B1 (OATP1B1-mediated uptake of pitavastatin, read-out: Islatravir IC50), more than 300 µM. The time-dependent inhibition result on CYP1A2 (CYP1A2, pre-incubation of 10 and 50 µM for up to 30 min) was “no time-dependent inhibition”; at CYP3A4 (CYP3A4, pre-incubation of 10 and 50 µM for up to 30 min), “no time-dependent inhibition”. Also, the “DDI Potential” value at CYP1A2 (CYP1A2 time dependent inhibition) is given as “Low risk ^h”; on OCT2 (OCT2 inhibition, FDA, EMA, PMDA guidance), “Low risk”; at CYP3A4 (CYP3A4 time dependent inhibition), “Low risk ^h”; on OATP1B1 (OATP1B1 inhibition, FDA, EMA, PMDA guidance), “Low risk”. Further, the “Islatravir Uptake Transporter-Expressing Cells” value on OAT1 (MDCKII-OAT1, 1 µM [3H]islatravir, 5 min, mean ± SD, n = 3) turned out to be 0.72 ± 0.04 pmole/10^6 Cells. Moreover, at OAT1 (OAT1, uptake into transporter-expressing cells to control cells, 5 min), the Fold-Difference came out at 1.04. Also, the “Islatravir Uptake Control Cells” value on OAT1 (OAT1 row, MDCKII control cells, 1 µM [3H]islatravir, 5 min, mean ± SD, n = 3) is recorded as 0.69 ± 0.07 pmole/10^6 Cells. In addition, the Conclusions entry on OAT1 (OAT1 substrate assessment) was “Non-substrate”. For the same molecule, the inhibition at 100 µM on OCT2 (CHO-K1-OCT2 cells, probe metformin, 100 µM islatravir) turned out to be 15%. On OCT2 (OCT2, 60 mg, Cmax 1.01 µM, fu,p 0.96), the “Maximum Unbound Plasma Concentration (Imax,u) to IC50 Ratio” value was less than 0.010 µM. Further, the “Maximum Unbound Inlet Concentration (Iin,max,u) to IC50 Ratio” value at OATP1B1 (OATP1B1, 60 mg dose) was less than 0.035.
